Values after ≈ are worked out from the molar mass of the structure shown. Values joined by “and” are separate entries in the source; they are usually repeats but may differ in a detail not shown here. Identical values can stand only once. Like-named read-outs stand apart in the source and are kept apart here.
Legend:
Hepatitis B Virus (HBV) [1] = test: HBV replication intermediates (RI, intracellular HBV DNA) in 2.2.15 cells; format: cell-based
Method: Test compounds were added daily for a nine continuous day period; the culture medium was collected and stored for analysis of extracellular (virion) HBV DNA after 0, 3, 6, and 9 days of treatment. The treated cells were lysed 24 hours following day 9 of treatment for the analysis of intracellular HBV genomic forms. The overall levels of HBV DNA (both extracellular and intracellular DNA) and the relative rate of HBV replication (intracellular DNA) were analyzed quantitatively. The analysis was performed using blot hybridization techniques and [^32P]-labeled HBV-specific probes. The HBV DNA levels were measured by comparison to known amounts of HBV DNA standards applied to every nitrocellulose membrane (gel or slot blot). An AMBIS beta scanner, which measures the radioactive decay of the hybridized probes directly from the nitrocellulose membranes, was used for the quantitative analysis. Standard curves, generated by multiple analyses, were used to correlate CPM measurements made by the beta scanner with relative levels of target HBV DNA. The levels of HBV virion DNA released into the culture medium were analyzed by a slot blot hybridization procedure. HBV DNA levels were then compared to those at day 0 to determine the effect of the test compound. A known positive drug was evaluated in parallel with test compounds in each test.

2.2.15 cells = test: HBV cytotoxicity assay, neutral red dye uptake in 2.2.15 cells; format: cell-based; settings: Homo sapiens, read-out: IC50 (toxicity, neutral red dye uptake)
Method: The toxicity of the test compounds in cultures of 2.2.15 cells, grown to confluence in 96-well flat-bottomed tissue culture plates and treated with compounds as described above, were assayed at four concentrations each in triplicate cultures, in 3 to 10-fold steps. Untreated control cultures were maintained on each plate. On each plate, wells containing no cells were used to correct for light scattering.
Stock solutions of text drugs were prepared in DMSO.

Hepatitis B Virus (HBV) [2] = test: HBV proteins and nucleic acids in 2.2.15 cells; format: cell-based; settings: Day 9, 2.2.15 cells; robustaflavone @10 μM
Method: Values of HBV proteins were determined by semi-quantitative EIA performed as previously described.^83 For the EIA analyses, test samples-were diluted (2- to 10-fold) so that the assay values produced were within the linear dynamic range of the EIA assays. Standard curves using serial dilutions of positive assay controls were included in each set of EIA analyses. HBV surface antigen ([…]), preSI protein, and HBc antigen ([…]) are released as extracellular products and were therefore analyzed in culture medium obtained 24 h following the last treatment dose of oligonucleotides or 2′, 3′-ddc. HBV core antigen (HBcAg) is an intracellular viral protein and was assayed in cell extracts produced by Triton-X-100 lysis.^83
Cultures for HBV RNA were maintained on 6-well plates, cultures for HBV virion DNA analyses were maintained on either 96- or 24-well plates, and cultures for all other HBV parameters were maintained on 24-well plates.
The concentrations of antiviral agents used in these studies approximates the EC50 values of the individual agents against intracellular HBV DNA replication intermediates (HBV RI). Cultures were treated with the indicated agents for 9 days using standard procedures. Values reported are the levels of the indicated HBV markers at the end of the treatment period (“DAY 9”) expressed as a percentage (±standard deviation (S.D.) of the average levels in the control cultures at the beginning of the treatment period (“DAY 0”). The method of expression permits an analysis of the variation of the HBV markers in the untreated (control) cultures over the course of the treatment period. HBV nucleic acid levels were measured by standard blot hydridization (dot, Southern, or Northern). HBV protein levels were measured by standard semi-quantitative EIA methods. Cultures for HBV RNA were maintained in 6-well culture plates. The levels of each of two major classes of HBV RNA transcripts are listed separately. Cultures for all other HBV markers were maintained in 24-well culture plates. For each treatment, a total of 4 separate cultures were used for the analysis of each HBV marker at both DAY 0 and DAY 9.
Determination of Mechanism of Action. Measurements of intracellular and extracellular HBV DNA, 3.6 kb and 2.1 kb mRNA fragments, and HBsAg, HBeAg and HBcAg protein markers were conducted as previously described (93).

Adenovirus Type 5 [3] = test: microbe, parasite or virus in culture; format: cell-based; settings: Human mastadenovirus C, A549, read-out: CPE Inhibition EC50
Adenovirus Type 5 [4] = test: Adenovirus type 5 neutral red dye uptake in A549 cells; format: cell-based; settings: Human mastadenovirus C, A549; Adenovirus Type 5; read-out: Neutral Red EC50
[5] = tested on: Parainfluenza Type 3 Virus; test: organism not typed; format: cell-based; settings: MA104; Parainfluenza Type 3 Virus; read-out: CPI Inhibition EC50
[6] = tested on: Parainfluenza Type 3 Virus; test: organism not typed; format: cell-based; settings: MA104, read-out: Neutral Red EC50
[7] = tested on: Respiratory Syncytial Virus; test: microbe, parasite or virus in culture; format: cell-based; settings: human respiratory syncytial virus, MA104; read-out: Neutral Red EC50
HIV-1 RT = target: T1, HIV-1 RT (Human immunodeficiency virus type 1 group M subtype B, UniProt P03366); test: Anti-HIV-1 RT assay (recombinant enzyme); format: biochemical
T1 construct: made in house; host or cells: Escherichia coli

HIV-1 (strain LAV-1) = test: microbe, parasite or virus in culture; format: cell-based
in vitro = settings: African green monkey
Hepatitis B Virus (HBV) [8] = test: Inhibition of HBV replication in 2.2.15 cells, extracellular (virion) HBV DNA; settings: for EC90: 2.2.15 cells; for SI (CC50/EC90), HBV Virion: selective index;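 as to all read-outs here: extracellular virion HBV DNA in culture medium measured by slot blot hybridization with a 32P-labeled HBV probe, quantified against HBV DNA standards, after 9 days of daily dosing, compared with day 0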
[9] = range-finding, CMC vehicle, 200 mg/kg/day i.p. twice daily for 5 days
[10] = range-finding, DMSO, 75 mg/kg/day, 0.05 mL injection volume
[11] = range-finding, DMSO, 250 mg/kg/day i.p. twice daily for 5 days, 0.1 mL
[12] = robustaflavone in DMSO, 37.5 mg/kg/day i.p. bid × 5
[13] = robustaflavone in DMSO, 75 mg/kg/day i.p. bid × 5

## O=c1cc(-c2ccc(O)c(-c3c(O)cc4oc(-c5ccc(O)cc5)cc(=O)c4c3O)c2)oc2cc(O)cc(O)c12 [Robustaflavone (3), robustaflavone]
Hepatitis B Virus (HBV) [1]; Hepatitis B virus, read-out: EC50, HBV replication intermediates (RI) (intracellular DNA)
  EC50: 0.6 µM
Hepatitis B Virus (HBV) [1]; Hepatitis B virus, read-out: EC50, second value in parentheses
  EC50: 0.6 µM
Hepatitis B Virus (HBV) [1]; Hepatitis B virus, Table 2, value in parentheses, not explained, read-out: EC90, second value in parentheses
  EC90: 5.6 µM
Hepatitis B Virus (HBV) [1]; Table 2, value in parentheses, not explained
  SI (CC50/EC90), second value in parentheses: 60
2.2.15 cells
  IC50: 337 µM
Hepatitis B Virus (HBV) [2]
  Viral Antigens: HBeAg: 86 ± 6 % of Day 0 Control
  Viral Antigens: HBsAg: 97 ± 6 % of Day 0 Control
  Viral Antigens: HbcAG: 138 ± 8 % of Day 0 Control
  Viral DNA: Extracellular DNA: 1 ± 1 % of Day 0 Control
  Viral DNA: Intracellular DNA: 5 ± 1 % of Day 0 Control
  Viral mRNA: 3.6 kb and 2.1 kb mRNA (first column): 93 ± 10 % of Day 0 Control
Adenovirus Type 5 [3]
  EC50: > 100 µg/mL
Adenovirus Type 5 [4]
  EC50: > 100 µg/mL
[5]
  EC50: > 100 µg/mL
[6]
  EC50: 39 µg/mL (≈ 72.4 µM)
[7]
  EC50: ~56 µg/mL (≈ 104 µM)
HIV-1 RT; Anti-HIV-1 RT IC50, values in parentheses or in words
  IC50: 65 µM
HIV-1 RT; HIV-1 RT IC50 (50% inhibition dose)
  IC50: 62.6 µM and 65.4 µM
HIV-1 RT; read-out: Anti-HIV-1 RT % Inhibition at 200 μg/ml
  inhibition at 200 µg/mL: 91.4%
HIV-1 (strain LAV-1)
  anti-HIV-1 activity in PBM cells (in words): inactive
HIV-1 (strain LAV-1); Human immunodeficiency virus 1, PBMC, human PBM cells infected with HIV-1 (strain LAV), read-out: Ant-HIV-1 in PBM cells EC50
  EC50: > 100 µM
HIV-1 (strain LAV-1); PBM cells
  Selective Index (SI): <1
CMC, 200 and 100 mg/kg/day
  tolerability in the antiviral experiment (in words): well tolerated
DMSO, 37.5 mg/kg/day
  toxicity control mice killed: 2 of 3
DMSO, 75 mg/kg/day
  toxicity in the antiviral experiment (in words): lethally toxic
DMSO, 75 and 37.5 mg/kg/day
  toxicity in the antiviral experiment (in words): toxic to the mice
female, BALB/c, mouse, in vivo, ip, 200 mg/kg/day
  Toxicity Controls Surv/Total: 3/3
mouse, in vivo, ip, 200 mg/kg/day
  Toxicity Controls Mean Weight Change: 1.5 g
mouse, in vivo, ip, 1005 mg/kg/day
  Toxicity Controls Mean Weight Change: 1.9 g
[9]
  tolerability (in words): reasonably well tolerated
  weight lost in the 5-day treatment period: 0.1 g
[10]
  survival (in words): all mice survived
  weight lost during the 5-day treatment period: 2 g
[11]
  tolerability (in words): lethally toxic
  weight loss: 6 g
Robustaflavone in 0.4% CMC, 1005 mg/kg/day (so in the source) i.p. bid × 5
  Toxicity Controls Surv/Total: 4/4
[12]
  Toxicity Controls Mean Weight Change: -0.8 g
  Toxicity Controls Surv/Total: 1/3
[13]
  Toxicity Controls Mean Weight Change: -1.7 g
  Toxicity Controls Surv/Total: 0/3
In vitro
  IC50: < 14 µg/mL
Hepatitis B Virus (HBV) [8]; Hepatitis B virus, read-out: EC50, concentration necessary to decrease HBV DNA levels by 50%, 2.2.15 cells, combinations: with respect to RF
  EC50: 0.25 µM
Hepatitis B Virus (HBV) [8]; read-out: EC90 (90% effective dose), HBV Virion, extracellular (virion) HBV DNA, 9 days treatment
  EC90: 2.4 µM
Hepatitis B Virus (HBV) [8]; read-out: EC90 (90% effective dose), HBV Virion, extracellular (virion) HBV DNA, 9 days treatment, listed as Robustaflavone
  EC90: 2.2 µM
Hepatitis B Virus (HBV) [8]; read-out: EC90, concentration necessary to decrease HBV DNA levels by 90%, combinations: with respect to RF
  EC90: 2.2 µM
Hepatitis B Virus (HBV) [8]
  SI (CC50/EC90), HBV Virion: 153
Hepatitis B Virus (HBV) [8]; listed as Robustaflavone
  SI (CC50/EC90), HBV Virion: 153
Hepatitis B Virus (HBV) [8]; listed as robustaflavone
  SI (CC50/EC90), HBV Virion: 153

Reference: US6399654B1, “Biflavanoids and derivatives thereof as antiviral agents” (priority 1995, dated 2002)
